Reference: patent US20220009914A1, “Analogs of Nitrofuran Antibiotics to Combat Resistance” (The Trustees of Indiana University, priority 2020, published 2022)
Read-outs that look alike come from different tables or passages of the source.

Legend:
native MDH = target: T1, native MDH (Sus scrofa, UniProt P00346); test: native MDH enzymatic activity counter-screen; type: biochemical, pig; details: without NfsB nitroreductase; compounds added after refolding; read-out: Native MDH Activity IC50
T1 sequence (P00346 25-338): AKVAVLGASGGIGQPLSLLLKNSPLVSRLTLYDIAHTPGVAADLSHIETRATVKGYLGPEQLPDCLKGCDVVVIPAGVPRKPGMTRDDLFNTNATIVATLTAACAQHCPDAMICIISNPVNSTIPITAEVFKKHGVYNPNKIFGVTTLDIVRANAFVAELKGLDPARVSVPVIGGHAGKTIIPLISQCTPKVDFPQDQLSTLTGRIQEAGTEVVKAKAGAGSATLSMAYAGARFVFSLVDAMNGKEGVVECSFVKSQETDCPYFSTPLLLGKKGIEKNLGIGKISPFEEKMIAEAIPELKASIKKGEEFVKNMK
Procedure: Reagent Preparations & Assay Protocol: This assay was performed as described above for the GroEL/ES-dMDH refolding assay; however, the assay protocol differed in the sequence of compound addition to the assay plates. The refolding reactions were allowed to proceed for 45 min at 37° C. in the absence of test compounds (complete refolding of MDH occurs), then quenched with the EDTA stock. Compounds were then pin-transferred into the plates after the EDTA quenching step; thus, compound effects are only possible by inhibiting the fully-refolded MDH reporter substrate. […] A340 nm measurements were recorded at 0.5 minutes (start point) and at successive time points until the amount of NADH consumed reached ˜90% (end point, generally between 20-35 minutes). Compounds were tested in 8-point, 3-fold dilution series (62.5 μM to 29 nM during the reporter reaction) in clear, flat-bottom 384-well microtiter plates. IC50 values for the MDH reporter enzyme were determined as described above. Results presented represent the averages of IC50 values obtained from at least five replicates.
Evaluating analogs for inhibiting GroEL/ES-mediated substrate refolding functions. […] We first evaluated all test compounds in our standard GroEL/ES-mediated refolding assays that employ either malate dehydrogenase (MDH) or rhodanese (Rho) as the denatured substrate reporter enzymes. When denatured, these enzymes are efficiently folded by GroEL/ES in the absence of inhibitors, and thus act as reporters to determine the degree of inhibition against the bacterial chaperonin system. Inhibition was examined in the presence of these two orthogonal substrates in order to support that GroEL/ES inhibitors were on-target. To further support on-target effects against GroEL/ES, we counter-screened for inhibition of the native MDH and Rho enzymatic reporter reactions, where test compounds were added after the denatured MDH and Rho substrate enzymes were completely refolded by GroEL/ES.

E. coli GroEL = target: T2, E. coli GroEL (Escherichia coli, UniProt P0A6F5); test: GroEL-mediated ATPase assay; type: biochemical
T2 construct: made in house; host or cells: NEB 5-alpha E. coli
Procedure: Evaluating compounds for inhibition in the GroEL-mediated ATPase assay. All compounds were evaluated for inhibiting E. coli GroEL-mediated ATPase activity as per our previously reported procedure although employing only GroEL in solution and not containing GroES or denatured MDH. Evaluating compounds for inhibition in the GroEL-mediated ATPase assay.
Reagent preparation: For this assay, four primary reagent solutions were prepared: 1) GroEL protein solution; 2) ATP initiation solution; 3) EDTA quench solution; 4) malachite green reporter solution. The GroEL protein solution consisted of 100 nM of GroEL in folding buffer (50 mM Tris-HCl, pH 7.4, 50 mM KCl, 10 mM MgCl2, and 1 mM DTT), which was prepared immediately prior to dispensing into the assay plates. For the ATP initiation solution, ATP solid was diluted into folding buffer to a final concentration of 2 mM. Quench solution contained 300 mM EDTA (pH 8.0). The malachite green reporter solution contained 0.034% w/v malachite green, 1.04% w/v ammonium molybdate, 1% Tween-20, and 1 M HCl dissolved in H2O.
Assay Protocol: First, 10 μL aliquots of the GroEL protein solution were dispensed into clear, flat-bottom 384-well polystyrene plates. […] After incubating for 45 minutes at 37° C., 10 μL of the EDTA quench solution was added to quench the reaction cycle. Then, 60 μL of the malachite green reporter solution was added and the plates were incubated at room temperature for 10 min. The absorbance of the malachite green-phosphate complex was measured at 600 nm using a Molecular Devices SpectraMax Plus384 microplate reader. A second set of baseline control plates were prepared analogously, but without GroEL protein solution, to correct for possible interference from compound absorbance or turbidity. […] Results presented represent the averages of IC50 values obtained from at least four replicates.
Evaluating analogs for inhibiting GroEL-mediated ATPase activity. […] Thus, we further tested analogs in a well-established GroEL ATPase assay that employed malachite green to monitor inorganic phosphate liberated as GroEL hydrolyzed ATP. Briefly, a solution of GroEL was incubated with test compounds (8-point, 3-fold dilution series) and the assay was initiated by addition of ATP. After incubating for 45 minutes, the ATPase reaction was quenched by the addition of EDTA. Malachite green was then added to the assay to bind and detect free phosphates in solution (absorbance detection at k=600 nm). If analogs inhibited ATPase activity, then there would be no free phosphates for malachite green to bind, leading to minimal absorbance at 600 nm.

T2 sequence (P0A6F5 2-548): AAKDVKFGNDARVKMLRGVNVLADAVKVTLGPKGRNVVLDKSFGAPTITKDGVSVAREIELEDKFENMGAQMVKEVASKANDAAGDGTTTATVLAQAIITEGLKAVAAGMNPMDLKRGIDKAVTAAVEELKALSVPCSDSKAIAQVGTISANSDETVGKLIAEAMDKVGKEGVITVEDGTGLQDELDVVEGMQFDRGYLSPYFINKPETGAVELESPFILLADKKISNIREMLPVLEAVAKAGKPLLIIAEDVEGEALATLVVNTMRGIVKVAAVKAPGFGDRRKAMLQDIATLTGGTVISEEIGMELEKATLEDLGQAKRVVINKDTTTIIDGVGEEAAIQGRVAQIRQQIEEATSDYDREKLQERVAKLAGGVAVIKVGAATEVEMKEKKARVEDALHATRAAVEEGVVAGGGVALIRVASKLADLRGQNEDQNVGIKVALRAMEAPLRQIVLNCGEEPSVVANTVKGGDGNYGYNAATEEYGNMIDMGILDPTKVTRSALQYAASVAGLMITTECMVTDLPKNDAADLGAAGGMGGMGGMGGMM

## O=C(N/N=C/c1ccc(O)c2ncccc12)c1ccccc1 [Compound 5, N′-((8-hydroxyquinolin-5-yl)methylene)benzohydrazide]
Native MDH
  IC50: > 63 µM
E. coli GroEL
  IC50: > 250 µM

## O=Cc1ccc(O)c2ncccc12 [Compound 40, reference compound]
Native MDH
  IC50: > 63 µM
E. coli GroEL; GroEL only, no GroES or dMDH, read-out: GroEL ATPase IC50
  IC50: > 250 µM

## O=Cc1ccc([N+](=O)[O-])o1 [Compound 41, reference compound]
Native MDH
  IC50: > 63 µM
E. coli GroEL
  IC50: > 250 µM

## O=C(N/N=C/c1ccc(O)c2ncccc12)c1ccccc1Oc1ccccc1 [Compound 10, N′-((8-hydroxyquinolin-5-yl)methylene)-2-phenoxybenzohydrazide]
Native MDH
  IC50: > 63 µM
E. coli GroEL
  IC50: > 250 µM

## CCOc1ccc(S(=O)(=O)Nc2ccc(C(=O)N/N=C/c3ccc(O)c4ncccc34)cc2)cc1 [Compound 15, 4-ethoxy-N-(4-(2-((8-hydroxyquinolin-5-yl)methylene)hydrazine-1-carbonyl)phenyl)benzenesulfonamide]
Native MDH
  IC50: > 63 µM
E. coli GroEL
  IC50: > 250 µM

## O=C(N/N=C/c1ccc(O)c2ncccc12)c1cccc2ccccc12 [Compound 9, N′-((8-hydroxyquinolin-5-yl)methylene)-1-naphthohydrazide]
Native MDH
  IC50: > 63 µM
E. coli GroEL
  IC50: > 250 µM

## O=C(N/N=C/c1ccc(O)c2ncccc12)c1ccc(NS(=O)(=O)c2cccs2)cc1 [Compound 13, N-(4-(2-((8-hydroxyquinolin-5-yl)methylene)hydrazine-1-carbonyl)phenyl)thiophene-2-sulfonamide]
Native MDH
  IC50: > 63 µM
E. coli GroEL
  IC50: > 250 µM

## O=C(N/N=C/c1ccc([N+](=O)[O-])o1)c1cccc2ccccc12 [Compound 22, N′-((5-nitrofuran-2-yl)methylene)-1-naphthohydrazide]
Native MDH
  IC50: > 63 µM
E. coli GroEL
  IC50: > 250 µM

## O=C(N/N=C/c1ccc([N+](=O)[O-])o1)c1ccccc1Oc1ccccc1 [Compound 23, N′-((5-nitrofuran-2-yl)methylene)-2-phenoxybenzohydrazide]
Native MDH
  IC50: > 63 µM

## CCN(CC)S(=O)(=O)c1cccc(C(=O)N/N=C/c2ccc(O)c3ncccc23)c1 [Compound 12, N,N-diethyl-3-(2-((8-hydroxyquinolin-5-yl)methylene)hydrazine-1-carbonyl)benzenesulfonamide]
Native MDH
  IC50: > 63 µM
E. coli GroEL
  IC50: > 250 µM

## O=C(N/N=C/c1ccc(O)c2ncccc12)c1cccc(Oc2ccccc2)c1 [Compound 11, N′-((8-hydroxyquinolin-5-yl)methylene)-3-phenoxybenzohydrazide]
Native MDH
  IC50: > 63 µM
E. coli GroEL
  IC50: > 250 µM

## O=[N+]([O-])c1ccc(O)c2ncccc12 [Nitroxoline, reference compound]
Native MDH
  IC50: > 63 µM
E. coli GroEL
  IC50: > 250 µM

## O=C(N/N=C/c1ccc(O)c2ncccc12)c1ccc(Cl)s1 [Compound 4, 5-chloro-N′-((8-hydroxyquinolin-5-yl)methylene)thiophene-2-carbohydrazide]
Native MDH
  IC50: > 63 µM
E. coli GroEL
  IC50: > 250 µM

## O=C(N/N=C/c1ccc([N+](=O)[O-])o1)c1cccc(Oc2ccccc2)c1 [Compound 24, N′-((5-nitrofuran-2-yl)methylene)-3-phenoxybenzohydrazide]
Native MDH
  IC50: > 63 µM
E. coli GroEL
  IC50: > 250 µM

## O=C(N/N=C/c1ccc(O)c2ncccc12)c1ccc(NS(=O)(=O)c2ccc(Br)cc2)cc1 [Compound 14, 4-bromo-N-(4-(2-((8-hydroxyquinolin-5-yl)methylene)hydrazine-1-carbonyl)phenyl)benzenesulfonamide]
Native MDH
  IC50: > 63 µM
E. coli GroEL
  IC50: > 250 µM

## CN(C)c1ccc(C(=O)N/N=C/c2ccc(O)c3ncccc23)cc1 [Compound 8, 4-(dimethylamino)-N′-((8-hydroxyquinolin-5-yl)methylene)benzohydrazide]
Native MDH
  IC50: > 63 µM
E. coli GroEL
  IC50: > 250 µM

## COc1ccc(C(=O)N/N=C/c2ccc(O)c3ncccc23)cc1 [Compound 1, N′-((8-hydroxyquinolin-5-yl)methylene)-4-methoxybenzohydrazide]
Native MDH
  IC50: > 63 µM
E. coli GroEL
  IC50: > 250 µM
